The target of experiment [1] is T1, Quinolone resistance protein NorA (Staphylococcus aureus) (UniProt P0A0J7).
T1 sequence (whole entry): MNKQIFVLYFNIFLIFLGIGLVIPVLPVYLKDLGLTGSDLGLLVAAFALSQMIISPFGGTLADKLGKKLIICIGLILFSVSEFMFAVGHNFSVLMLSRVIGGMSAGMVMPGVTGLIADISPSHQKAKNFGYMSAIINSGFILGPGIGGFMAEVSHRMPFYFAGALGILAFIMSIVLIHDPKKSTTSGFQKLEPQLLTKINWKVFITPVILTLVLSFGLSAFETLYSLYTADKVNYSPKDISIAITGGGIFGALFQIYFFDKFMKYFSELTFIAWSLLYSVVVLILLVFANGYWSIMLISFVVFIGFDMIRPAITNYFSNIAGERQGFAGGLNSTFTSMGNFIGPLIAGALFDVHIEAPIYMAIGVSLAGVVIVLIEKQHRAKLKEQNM
Kind of experiment: Potentiation of ciprofloxacin-mediated inhibition of NorA efflux pump in Staphylococcus aureus 1199B overexpressing NorA efflux pump assessed as reduction in ciprofloxacin MIC (Rvb= […] ug/ml).

For experiment [2], the system named is Staphylococcus aureus. Kind of experiment: Antibacterial activity against norfloxacin resistant Staphylococcus aureus 1199 assessed as bacterial growth inhibition. In kind it is functional.
For experiment [3], the system named is Staphylococcus aureus. Nature of the experiment: Antibacterial activity against norfloxacin resistant Staphylococcus aureus 1199B overexpressing NorA assessed as bacterial growth inhibition. In kind it is functional.
In experiment [4] the target is T1, Quinolone resistance protein NorA (Staphylococcus aureus). Nature of the experiment: Potentiation of EtBr-induced inhibition of NorA efflux pump in Staphylococcus aureus 1199B overexpressing NorA efflux pump assessed as reduction in EtBr MIC at 1/8 times of MIC incubated for 24 hrs by resazurin based broth microdilution method (Rvb= 32 ug/ml). A general note: The colour change of resazurin is a common sign of viable cells or microbes.

Experiment [5] shares this target. Nature of the experiment: Potentiation of norfloxacin-induced inhibition of NorA efflux pump in Staphylococcus aureus 1199B overexpressing NorA efflux pump assessed as reduction in norfloxacin MIC at 1/8 times of MIC incubated for 24 hrs by resazurin based broth microdilution method (Rvb= 128 ug/ml).
The target is the same in experiment [6]. Kind of experiment: Potentiation of EtBr-induced inhibition of NorA efflux pump in Staphylococcus aureus 1199A assessed as reduction in EtBr MIC at 1/8 times of MIC incubated for 24 hrs by resazurin based broth microdilution method (Rvb=32 ug/ml).
Experiment [7] deals with Staphylococcus aureus. Kind of experiment: Antibacterial activity against norfloxacin resistant Staphylococcus aureus 1199 assessed as bacterial growth inhibition incubated for 24 hrs by resazurin based broth microdilution method. In kind it is functional.
Experiment [8] addresses T1, Quinolone resistance protein NorA (Staphylococcus aureus). Nature of the experiment: Potentiation of norfloxacin-induced inhibition of NorA efflux pump in Staphylococcus aureus 1199A assessed as reduction in norfloxacin MIC at 1/8 times of MIC incubated for 24 hrs by resazurin based broth microdilution method (Rvb= […] ug/ml).
In experiment [9] the test system is Staphylococcus aureus. Kind of experiment: Antibacterial activity against norfloxacin resistant Staphylococcus aureus 1199B overexpressing NorA assessed as bacterial growth inhibition incubated for 24 hrs by resazurin based broth microdilution method. It is filed as functional.
Experiment [10] has as its system Staphylococcus aureus. Kind of experiment: Antibacterial activity against Staphylococcus aureus 1199B overexpressing NorA efflux gene assessed as bacterial growth inhibition incubated for 24 hrs by broth microdilution method. It is filed as functional.
Experiment [11] deals with Staphylococcus aureus. Kind of experiment: Antibacterial activity against NorA knockout Staphylococcus aureus K1758 assessed as bacterial growth inhibition incubated for 24 hrs by broth microdilution method. It is filed as functional. For orientation: In broth dilution the organism is exposed to a series of concentrations in liquid medium.
The test system of experiment [12] is Staphylococcus aureus. Nature of the experiment: Antibacterial activity against Staphylococcus aureus 1199 assessed as bacterial growth inhibition incubated for 24 hrs by broth microdilution method. It is filed as functional.
The test system of experiment [13] is Staphylococcus aureus. Kind of experiment: Antibacterial activity against norfloxacin resistant Staphylococcus aureus IS-58 overexpressing TetK efflux pump gene assessed as bacterial growth inhibition incubated for 18 to 24 hrs by NCCLS protocol based microdilution method. In kind it is functional. The settings on record: time 18-24 hrs.
The subject of experiment [14] is Staphylococcus aureus. Nature of the experiment: Antibacterial activity against norfloxacin resistant Staphylococcus aureus RN4220 overexpressing MsrA efflux pump gene assessed as bacterial growth inhibition incubated for 18 to 24 hrs by NCCLS protocol based microdilution method. It is filed as functional. The settings on record: time 18-24 hrs.
Experiment [15] relates to Staphylococcus aureus. Kind of experiment: Antibacterial activity against norfloxacin resistant Staphylococcus aureus 1199B overexpressing NorA efflux pump gene assessed as bacterial growth inhibition incubated for 18 to 24 hrs by NCCLS protocol based microdilution method. The settings on record: time 18-24 hrs. In kind it is functional.
The test system of experiment [16] is Staphylococcus aureus. Nature of the experiment: Antibacterial activity against Staphylococcus aureus SA10 assessed as bacterial growth inhibition incubated for 24 hrs by resazurin based microdilution assay. In kind it is functional.
Experiment [17] deals with T1, Quinolone resistance protein NorA (Staphylococcus aureus). Kind of experiment: Potentiation of EtBr-induced inhibition of NorA efflux in Staphylococcus aureus 1199B overexpressing NorA assessed as reduction in EtBr MIC at 256 ug/ml incubated for 24 hrs by resazurin based assay (Rvb= 32 ug/ml). The settings on record: dose 256.0 µg/ml.
In experiment [18] the test system is Staphylococcus aureus. Nature of the experiment: Antibacterial activity against norfloxacin resistant Staphylococcus aureus 1199B overexpressing NorA assessed as bacterial growth inhibition incubated for 24 hrs by resazurin based microdilution assay. It is filed as functional.
The subject of the next experiment is Candida albicans. Nature of the experiment: Antifungal activity against Candida albicans NEWP031 assessed as bacterial growth inhibition incubated for 24 hrs by resazurin based microdilution assay. In kind it is functional.
Experiment [19] concerns Escherichia coli. Kind of experiment: Antibacterial activity against Escherichia coli ATCC […] assessed as bacterial growth inhibition incubated for 24 hrs by resazurin based microdilution assay. It is filed as functional.
Experiment [20] concerns Staphylococcus aureus. Nature of the experiment: Antibacterial activity against Staphylococcus aureus 1199 assessed as bacterial growth inhibition incubated for 24 hrs by resazurin based microdilution assay. In kind it is functional.
Experiment [21] deals with Staphylococcus aureus. Kind of experiment: Antibacterial activity against Staphylococcus aureus ATCC 25923 assessed as bacterial growth inhibition incubated for 24 hrs by resazurin based microdilution assay. In kind it is functional.
Experiment [22] has as its target T1, Quinolone resistance protein NorA (Staphylococcus aureus). As to conditions: 1199B, dose 128.0 µg/ml, time 24.0 hrs.
Experiment [23] deals with Escherichia coli. Kind of experiment: Potentiation of gentamicin-induced antibacterial activity against Escherichia coli 06 assessed as gentamicin MIC at 1/8 times of MIC (Rvb= 322 ug/ml). In kind it is functional.
The target in experiment [24] is T1, Quinolone resistance protein NorA (Staphylococcus aureus). Kind of experiment: Potentiation of EtBr-induced inhibition of NorA efflux pump in Staphylococcus aureus 1199B overexpressing NorA efflux pump assessed as reduction in EtBr MIC at 1/8 times of MIC by resazurin based assay (Rvb= 512 ug/ml).

From ChEMBL document CHEMBL5244281, “Tackling multidrug-resistant Staphylococcus aureus by natural products and their analogues acting as NorA efflux pump inhibitors” (Bioorg Med Chem, 2023) come the findings set out here.

Values after ≈ are worked out from the molar mass of the structure shown. Where only a bound is given, the exact number is not on record here.

As for `CCOC(=O)/C=C/C(C)=C/c1ccc2c(c1)CCC(C)(C)O2`, the MIC in experiment [1] turned out to be 3.12 µg/mL.
With `C=C1CCC2CC1C2(C)C` (stereo not drawn) [BETA-PINENE], the MIC in the experiment on Staphylococcus aureus [2] and with Staphylococcus aureus [3] was above 1020 µg/mL throughout.
As to `Cc1ccc(C(C)C)cc1O` [CARVACROL], the MIC amounted to 16 µg/mL in experiment [4]; 64 µg/mL in experiment [5]; 25.4 µg/mL in experiment [6]; 256 µg/mL (≈ 1700 µM) in the experiment with Staphylococcus aureus [7]; 32 µg/mL in experiment [8]; 256 µg/mL (≈ 1700 µM) in the experiment on Staphylococcus aureus [9].
Consider `O=c1c(O)c(-c2ccccc2)oc2cc(O)cc(O)c12` [GALANGIN], for which the MIC was found to be 250 µg/mL (≈ 925 µM) in the experiment with Staphylococcus aureus [10], 125 µg/mL (≈ 463 µM) in the experiment with Staphylococcus aureus [11] and 125 µg/mL (≈ 463 µM) in the experiment with Staphylococcus aureus [12].
For `O=c1c(O)c(-c2ccc(O)cc2)oc2cc(O)cc(O)c12` [KAEMPFEROL], the MIC in the experiment on Staphylococcus aureus [10] is 250 µg/mL (≈ 873 µM); in the experiment on Staphylococcus aureus [11], 125 µg/mL (≈ 437 µM); in the experiment on Staphylococcus aureus [12] it was 125 µg/mL (≈ 437 µM).
Turning to `COc1c2occc2cc2ccc(=O)oc12` [METHOXSALEN], the MIC in the experiment on Staphylococcus aureus [13], with Staphylococcus aureus [14] and in the experiment on Staphylococcus aureus [15] was above 256 µg/mL in each case.
As to `CC(C)=CCC/C(C)=C\CO` [NEROL], the MIC with Staphylococcus aureus [16] is at least 1020 µg/mL; in experiment [17], 16 µg/mL; with Staphylococcus aureus [18], at least 1020 µg/mL; in the experiment with Candida albicans it was 212 µg/mL (≈ 1370 µM); in the experiment with Escherichia coli [19] it was 512 µg/mL (≈ 3320 µM); with Staphylococcus aureus [20] it was at least 1020 µg/mL. Moreover, the MIC was at least 1020 µg/mL in the experiment with Staphylococcus aureus [21] and 32 µg/mL (≈ 207 µM) in experiment [22].
`CC(C)=CCOc1c2occc2cc2ccc(=O)oc12` [PENTOSALEN]: the MIC in the experiment with Staphylococcus aureus [13], with Staphylococcus aureus [14] and in the experiment on Staphylococcus aureus [15] was above 256 µg/mL each time.
With `O=C1C[C@@H](c2ccccc2)Oc2cc(O)cc(O)c21` [PINOCEMBRIN], the figures for the MIC with Staphylococcus aureus [10], with Staphylococcus aureus [11] and in the experiment on Staphylococcus aureus [12] were 500 µg/mL (≈ 1950 µM), 250 µg/mL (≈ 976 µM) and 250 µg/mL (≈ 976 µM), respectively.
On to `Cc1ccc(C(C)C)c(O)c1` [THYMOL], for which the MIC in [4] was 16 µg/mL; in [5], 64 µg/mL; in [6] it was 25.4 µg/mL; with Staphylococcus aureus [7] it was 256 µg/mL (≈ 1700 µM); in experiment [8], 32 µg/mL; in the experiment with Staphylococcus aureus [9], 256 µg/mL (≈ 1700 µM).
For `CC1(C)CC[C@]2(C)CC[C@]3(C)C(=CC[C@@H]4[C@@]5(C)CC[C@H](O)C(C)(C)[C@@H]5CC[C@]43C)[C@@H]2C1` [beta-AMYRIN], the MIC is 203 µg/mL in the experiment with Escherichia coli [23] and 406 µg/mL in experiment [24].
